In patent publication US20130059793A1, “EGF RECEPTOR MIMICKING PEPTIDES” (BOARD OF REGENTS, THE UNIVERSITY OF TEXAS SYSTEM, priority 2010, published 2013):

Experiments:
[1] = tested on: EF43.fgf-4-derived tumors; assay: Treatment of tumor-bearing mice with peptides and peptidomimetics, tumor volume; assay type: in vivo; settings: at the end of two weeks; Balb/c mice, EF43.fgf-4 tumors; 750 μg/mouse/dose for 5 days; mean±SEM
From the text: FIGS. 5A-B: CVRAC-targeted phage homes to tumor. (FIG. 5A) Targeting tumors versus control organs. […] An anti-phage antibody was used for staining H&E staining, with the corresponding fluorescence-based immunostaining, are shown in tumors (FIG. 5A). Tumor-bearing mice received CVRAC phage, CVAAC phage, or insertless control phage as indicated. Cohorts of tumor-bearing mice (n=5 mice/group) were used. A representative experiment is shown. Scale bar, 100 μm. (FIG. 5B) Treatment of tumor-bearing mice with peptides and peptidomimetics. Balb/c mice bearing EF43.fgf-4-derived tumors were divided into size-matched cohorts (n=7 mice/group); individual tumor volumes are represented before (black circles) and after (white circles). Peptides and peptidomimetics were administered at 750 μg/mouse/dose for 5 days. Shown are mean tumor volumes±SEM.
Selective phage homing to tumors was evaluated as described (Hajitou et al., 2006; Arap et al., 1998). […] Each cohort of mice (n=3 per experiment) with size-matched tumors received a set of test and control phage clones. After 6 h, tumor-bearing mice were perfused through the heart with 20 ml of PBS containing 4% paraformaldehyde (PFA). […] For experimental therapy, Balb/c mice bearing EF43.fgf-4-derived tumors were established, and tumor volumes were determined as described (Arap et al., 1998; Hajitou et al., 2006; Ciardiello et al., 1999). […]

HN5 tumor cells = assay: Cell viability/proliferation, MTT assay, HN5; assay type: cell-based, human; parameters: cell proliferation / viability: dose or concentration left out as unconfirmed
Experimental: (§1) A representative experiment is depicted. […] Bars represent mean±SEM. […] (FIG. 4C) Effect of the synthetic peptides on HN5 tumor cells. […] Viability in the absence of peptide was set to 100%. […] Bars represent mean±SEM. […] Receptors were immunoprecipitated with antibodies against phosphorylated (p) pEGFR and were immunoblotted with anti-phosphotyrosine IgG.
Tumor cell lines HN5, UMSCC 10A, GEO and EF43.fgf-4 were culture in standard conditions. Viability was assessed by MTT assays (Sigma) as described (Cardó-Vila et al., 2003). […] Samples were read at 570 nm.
Tumor cell lines HN5, UMSCC 10A, GEO and EF43.fgf-4 were maintained in high-glucose DMEM, supplemented with 10% heat-inactivated fetal bovine serum, 20 mM HEPES (pH 7.4), 100 IU/ml penicillin, 100 μg/ml streptomycin, and 4 mM glutamine at 5% CO2 at 37° C. EF43.fgf-4 were grown in G418 as described (Hajitou et al., 2006).

p38 = assay: EGF-induced phosphorylation of p38 in HN5 cells; assay type: cell-based; settings: human HN5 head and neck cells
From the text: (§2) To dissect the downstream signal transduction cascade in this setting, proliferative, survival, and migratory pathways were examined.

AKT = assay: EGF-induced phosphorylation of AKT in HN5 cells; assay type: cell-based; settings: human HN5 head and neck cells
From the text: as §2

ERK = assay: EGF-induced phosphorylation of ERK in HN5 cells; assay type: cell-based; settings: human HN5 head and neck cells
From the text: as §2

cetuximab = assay: Binding of synthetic peptides to cetuximab (ELISA-based, FIG. 3A, FIG. 4B); settings: FIG. 4B (peptides plated at 10 μg/ml)
From the text: BSA served as an additional negative control, and the EGFR, as a positive control. […] Insertless phage served as a negative control. […] Bars represent mean±SEM.
as §1
(§3) The EGFR served as an immobilized positive control, and BSA or control peptides (CVAAC) served as immobilized negative controls.

[2] = target: binding of TGFα to the EGFR (Homo sapiens, UniProt P01135); assay: Displacement of TGFα from immobilized EGFR (FIG. 6B); settings: increasing molar concentrations
From the text: (§4) The EGFR was coated onto 96-well plates at decreasing concentrations. […] D(CAAVC (SEQ ID NO:8)) was used as a negative peptidomimetic control at the same concentrations (circles). […] Bars represent mean±SEM.
(§5) Decreasing molar concentrations of EGFR were immobilized in vitro, after which the native ligand (EGF or TGFα) was used to establish the baseline for the binding of EGF to the EGFR, or of TGFα to the EGFR.

[3] = tested on: polyclonal anti-CVRAC antibodies; assay: ELISA recognition of peptides by polyclonal anti-CVRAC antibodies (FIG. 4B); assay type: binding, rabbit
From the text: as §1
Rabbits were immunized with KLH-conjugated CVRAC and a purified antibody was obtained. […] The capacity of rabbit IgG against CVRAC to recognize CVRAC, D(CARVC), and EGFR was measured by ELISA.
as §3

[4] = Nuclear magnetic resonance (NMR)-spectroscopy interactions; assay type: binding
[5] = target: binding of EGF to the EGFR (Homo sapiens, UniProt P01133); assay: Displacement of EGF from immobilized EGFR (FIG. 6A); settings: D(CARVC) from 30 to 1,000 mM, cetuximab 12 nM positive control
From the text: as §4, §5

EGFR = assay: EGF-induced EGFR autophosphorylation (immunoprecipitation, anti-phosphotyrosine blot); assay type: cell-based, human; settings: HN5 tumor cells, EGF 15 min, FIG. 4E
From the text: as §1

binding of EGF to the EGFR, sequence (P01133 971-1023 limits assumed): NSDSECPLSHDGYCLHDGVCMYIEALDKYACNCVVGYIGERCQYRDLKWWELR
binding of TGFα to the EGFR, sequence (P01135 40-89 limits assumed): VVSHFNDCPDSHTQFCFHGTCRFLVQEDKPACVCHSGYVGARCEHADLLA

## D(CARVC)
[1]
  tumor volume: 550±50 mm^3
HN5 tumor cells; HN5, MTT, 120 h, increasing concentrations, FIG. 4C
  cell proliferation / viability: proliferated much less
HN5 tumor cells; prolonged (120 h) functional assay
  activity on an equimolar basis compared with CVRAC: more potent
p38
  EGF-induced phosphorylation of p38: not
AKT
  EGF-induced phosphorylation of AKT: inhibit
ERK
  EGF-induced phosphorylation of ERK: inhibit
cetuximab
  binding of synthetic peptide to cetuximab: retained binding activity
[2]
  displacement of TGFα from the EGFR: concentration-dependent displacement
[3]
  recognition by polyclonal anti-CVRAC antibodies: recognized
[4]
  interactions by NMR-spectroscopy: Low-affinity interactions (micromolar range)
[5]
  displacement of EGF from the EGFR: concentration-dependent effect
EGFR
  EGF-induced tyrosine phosphorylation of the EGFR: effectively inhibited
